In patent US5587509A, “Caged caboxyl compounds and use thereof” (Cornell Research Foundation, Inc., priority 1995, dated 1996):
Where two headings read alike, the source gives them in different places.

What was measured:
[1] = tested on: glycine receptor channels; assay: whole-cell current recording, cell-flow with mixer (effect of the caged compound or photoproduct on glycine receptor channels); type: cell-based, mouse; conditions: for effect on glycine receptors or their response to glycine: mouse cerebral cortical neurons, pH 7.1
Description: (§1) Whole-cell current recording was performed as follows. The preparation of embryonic mouse cortical cells was as described by Geetha et al. (Biochemistry 31:5488-5499 (1992)). The extracellular recording buffer was 145 mM NaCl, 1.8 MM MgCl2, 1 mM CaCl2 and 10 mM Hepes (pH 7.4) and the intracellular buffer was 145 mM CsCl, 1 mM CaCl2, 10 mM EGTA [ethyleneglycol-bis-(beta-aminoethyl ether) N,N,N',N'-tetraacetic acid] and 10 mM Hepes (pH 7.2) The flow method used to equilibrate receptors on the surface of a single cell with ligands within 10 ms has been described by Udgaonkar et al (Proc. Natl. Acad. Sci. USA, 84:8758-8762 (1987)). The whole-cell current responses were determined in mouse cortical neurons, pH […], room temperature (22° C.). Caged glycine solutions at pH 4.0 in extracellular buffer but containing only 5 mM Hepes were mixed in 1:1 proportions with extracellular recording buffer containing 20 mM Hepes at pH 7.4 using a low volume T-tube mixer before the solutions entered the U-tube that delivered the solution stream at pH 7.1 to the cell at a linear flow rate of 0.5 cm s^-1. The whole-cell current due to opening of glycine receptor channels was recorded using the technique of Hamill et al. (Pflugers Arch, 391:85-100 (1981)). All other details of the cell-flow technique, and the combination of the cell-flow technique with the laser-pulse photolysis technique in which the whole-cell current is measured after photolysis of caged neurotransmitter, were as described by Matsubara et al (Biochemistry, 31:5507-5514 (1992)). Hydrolysis of the caged glycine before it was applied to a cell was prevented by the mixer strategy.
Specifically, the caged glycine solution with and without free glycine at pH 4.0 was rapidly mixed with extracellular buffer to produce a solution of pH 7.1 before flowing it over the cell. A control solution of 85 μM free glycine (170 μM glycine in extracellular buffer mixed with pH 4 buffer used to stabilize the ester) is shown by the solid trace in FIG. 3. […] Identical current responses were obtained when 170 μM glycine in pH 7.4 buffer was mixed with pH 4 buffer when the solutions were altemately applied from the two different supply lines of the mixer (data not shown).

[2] = cited from earlier work
[3] = laser-pulse photolysis, transient absorbance (photolysis speed and product quantum yield); type: physicochemical
Description: (§2) To evaluate the photolysis characteristics of the 2-methoxy-5-nitro glycine ester of Example I, laser pulse photolysis was performed and the results thereof are shown in FIG. 2 by the rapid absorbance jump produced by the photolysis of the ester. The light source used to initiate the photolysis reaction was a Lumonics TE861M excimer laser. The lasing medium was either 2% N2 in helium, which produced a primary energy of 6 mJ at 337 nm with a 4 ns pulse width, or a XeCl mix that produced 70 rnJ at 308 nm in 6 ns pulses. For cell photolysis, the 337 nm light was delivered to the microscope stage for use in whole-cell recording measurements with a 300 μm core optical fiber (FiberGuide Industries); 10% of the primary energy was typically coupled through the fiber to the cell preparation. Rapid absorbance changes of caged compound solutions were measured with a transient absorbance spectrophotometer in which 308 nm light from the primary output of the laser was focussed into a 2×2 mm quartz cuvet and the absorbance changes produced were monitored at right angles to the laser beam with a single beam transient spectrophotometer whose signal transfer parameters effectively produced 500 kHz filtering of the rapid absorbance jump. The photocurrent was amplified with a Thorn EMI model Al preamplifier, which also acted as a low pass filter with cutoff dependent on the amplification selected; the cutoff frequencies were between 50 KHz and 50 MHz. The rapid absorbance jump produced in the caged ester solution by single laser flashes could be digitized at up to 2 MHz with a digital oscilloscope and in each case the preamplifier filtering was matched to the digitization rate of the data collection. Measurements of the pulsed UV light energy for quantum yield determinations were made with a Gentec ED200 calibrated thermopile.
Absorbance measurements of the fast jump were made over the range 350 to 450 nm and the resulting profile matched the absorbance spectrum of the expected 2-methoxy-5-nitrophenol. Measurements of triplet quenching in the reaction of 2-methoxy-5-nitrophenyl acetate by Kuzmic et al. (supra) indicate that the lifetime of the photohydrolysis reaction is 0.15 μs. The maximum time resolution of the transient absorbance measurements in our study is 0.5 μs.
The product quantum yield from photolysis of the caged glycine was estimated by comparison to the photolysis of 2-methoxy-5-nitrophenyl acetate, which was used as an actinometric standard. A quantum yield of 0.22 was found for a 1 mM solution of 2-methoxy-5-nitrophenyl acetate in 100 mM phosphate buffer at pH 7.0 that also contained 20% acetonitrile to substituted for caged glycine.

acetylcholine receptor = conditions: Milburn et al.; cited from earlier work
[4] = spontaneous hydrolysis in buffer followed spectrophotometrically; type: physicochemical
Description: A 1.1 mM solution of the caged glycine of Example I was prepared in extracellular recording buffer at pH 7.1. […] The caged glycine ester was rapidly dissolved in buffers to produce approximately 800 μM solutions of the caged compound and immediately transferred to a 2×2 cuvette in a Hewlett Packard model 8452A diode array spectrophotometer set up to collect spectra at timed intervals. The initial rates of the hydrolysis reaction were obtained from absorbance measurements at 310, 360 and 384 nm after subtraction of the absorbance of the completely hydrolyzed solution. The spectra of the fully hydrolyzed solutions were identical in all cases to reference spectra of 2-methoxy-5-nitrophenol at the different pH values. The upper trace at 310 nm represents the spectrum of the compound before hydrolysis. The lower trace at 310 nm corresponds to the fully hydrolyzed material and matches the spectrum of 2-methoxy-5-nitrophenol at pH 7.0. The spectra were acquired at 0, 1, 2, 3, 4, 6, 8, 11 and 60 min after the initial rapid dissolution in buffer. All measurements were performed at room temperature (22°-24° C.).

[5] = tested on: glycine receptor channels; assay: whole-cell current after laser-pulse photolysis of caged glycine (cell-flow laser-pulse photolysis); type: cell-based, mouse; conditions: for rate of rising phase of whole-cell current: 700 μM caged compound, pH 7.1
Description: as §2
as §1, with “strategy. […]” for “strategy.”

Compound: COc1ccc([N+](=O)[O-])cc1O [2-methoxy-5-nitrophenol]
- effect on glycine receptors or their response to glycine [1]: Neither the caged compound nor the 2-methoxy-5-nitrophenol photolysis product affected the glycine receptors or modified their response to glycine

Compound: COc1ccc([N+](=O)[O-])cc1OC(C)=O [2-methoxy-5-nitrophenyl acetate, reference compound]
- lifetime of the photohydrolysis reaction ([2]; triplet quenching measurements, Kuzmic et al.): 0.15 μs
- quantum yield ([3]; 1 mM solution in 100 mM phosphate buffer at pH 7.0 with 20% acetonitrile, actinometric standard): 0.22

Compound: O=C(O)CNC(C(=O)O)c1ccccc1[N+](=O)[O-] (stereo not shown) [N-(.varies.-carboxy-2-nitrobenzyl)glycine]
- product quantum yield ([2]; Billington et al.): 0.02
- photolysis time constant τ ([2]; pH 7.5, Billington et al.): 1.6 ms

Compound: C[N+](C)(C)CCOC(=O)NC(C(=O)O)c1ccccc1[N+](=O)[O-] (stereo not shown) [caged carbamoylcholine]
- biological activity before photolysis (acetylcholine receptor): biologically inert
- time to liberate carbamoylcholine by a laser pulse ([2]; laser pulse, Milburn et al.): ≤ 120 μs
- photolysis t1/2 ([2]; photolysis to carbamoylcholine, Milburn et al.): 40 μs

Compound: COc1ccc([N+](=O)[O-])cc1OC(=O)CN [caged glycine, 2-Methoxy-5-nitrophenyl glycine ester]
- half-life ([4]; buffer, pH 4, pH 4.0, read-out: time constant τ for hydrolysis (converted)): ~3 h
- half-life ([4]; hepes buffer, pH 7.1, pH 7.1 (neutral pH, Hepes buffered solution), room temperature (22-24° C.), absorbance at 310 nm, read-out: time constant of spontaneous hydrolysis): 0.102 h
- speed of absorbance jump on photolysis with 337 nm light ([3]; 337 nm versus 308 nm light, excimer laser): as fast as the one induced by 308 nm light
- product quantum yield from photolysis ([3]; caged glycine, estimated by comparison to 2-methoxy-5-nitrophenyl acetate as actinometric standard): 0.2
- time within which caged glycine is photolyzed / converted to products ([3]; laser pulse, absorbance change at 380 nm, b60: 308 or 337 nm): ≤ 3 μs
- effect of caged glycine on current response to free glycine ([1]; 170 μM glycine mixed 1:1 with 1.1 mM caged glycine ester in pH 4 buffer, versus control 85 μM free glycine): An identical response was produced
- activation of whole cell current by caged glycine ([1]; caged glycine at pH 4.0 mixed with external buffer, final pH 7.1, -40 mV, 22° C., mouse cortical neurons): did not activate any whole cell current
- effect on glycine receptors or their response to glycine [1]: Neither the caged compound nor the 2-methoxy-5-nitrophenol photolysis product affected the glycine receptors or modified their response to glycine
- inhibition or activation by caged glycine ([1]; mouse cortical neurons, pH 7.1, -40 mV): no observable inhibition or activation
- time thawed pH 4 solution could be used without detectable glycine currents in the preincubation baseline ([5]; frozen aliquots of freshly prepared caged glycine pH 4 solution, thawed before application with the mixer): up to 20 min
- opening of glycine receptor channels on irradiation ([5]; laser pulse at 337 nm, mouse cerebral cortical neurons equilibrated with caged glycine): glycine receptor channels were opened
- rate of rising phase of whole-cell current ([5]; lowest trace, 10 μm (so in the source) glycine released by photolysis): 42 s⁻¹
- rate of rising phase of whole-cell current ([5]; middle trace, 18 μM glycine released by photolysis): 40 s⁻¹
- rate of rising phase of whole-cell current ([5]; upper trace, 35 μM free glycine released by photolysis): 54 s⁻¹
